Measurements published in patent publication US20250092033A1, “HETEROAROMATIC NITROGEN-OXIDE COMPOUND, PREPARATION METHOD THEREFOR, AND USE THEREOF” (BEIJING AVISTONE BIOTECHNOLOGY CO., LTD., priority 2021, published 2025).

Tests used:
Type in all cases: biochemical
Conditions in all cases: 10 concentrations, 3-fold dilution
[1] = target: T1, wild type (WT) MET kinase (Homo sapiens, UniProt P08581); test: Kinase inhibition experiment (HTRF KinEASE-TK kit), wild-type MET
T1 construct: purchased Carna 08-151
Experimental: (§1) The activity of the compounds was determined by detecting the residual amount of ATP after reacting with wild-type or mutant MET protein kinase by using an HTRF KinEASE-TK kit. […]
(§2) The compounds were determined on the selected kinase, the solvent control was set and a total of 10 concentrations were detected, diluted 3-fold, 2 replicates per concentration.
(§3) 1 volume of 5× kinase reaction buffer and 4 volumes of water; 5 mM MgCl2; 1 mM DTT; 1 mM MnCl2; or 2500 nm SEB.
(§4) 1) 10 nl or 4 μlof the diluted compound was transferred to each well of the reaction plate (784075 or 264706, Greiner or Thermo) with a pipette, the reaction plate was sealed with a sealing plate, and centrifuged at 1000 for 1 minute.
(§5) 2) 2× MET was prepared from 1× enzyme reaction buffer, 5 μl or 2 μl kinase was added to each well of the reaction plate, the reaction plate was sealed with a sealing plate, centrifuged at 1000 g for 30 seconds and incubated at room temperature for 10 min.
(§6) 3) a mixed solution of 2× TK-substrate-biotin and ATP were prepared from 1× enzyme reaction buffer solution, 5 μl or 2 μl TK-substrate-biotin/ATP of the mixed solution was added into a reaction plate, the reaction plate was sealed with a sealing plate, centrifuged at 1000 g for 30 seconds and reacted for 50 minutes or 10 minutes at room temperature.
(§7) 4) a mixed solution of 4× or 2× Sa-XL 665 and TK-antibody-Cryptate were prepared from HTRF detection buffer, 5 or 10 μl of the mixed solution of Sa-XL 665 and TK-antibody-Cryptate was added into each well, centrifuged at 1000 g for 30 seconds, and reacted at room temperature for 1 h.
(§8) 5) the fluorescence signals at 615 nm (cryptate) and 665 nm (XL665) were read with Envision 2104 or TECAN.
(§9) The data was analyzed using GraphPad Prism 6.0 or 7 software, and the dose-response curve was fitted with nonlinear S-curve regression, and the IC50 value was calculated therefrom.
(§10) Enzyme Inhibition Percent (%)=100-(Signalmpd-SignalAve_PC)/(SignalAve_VC-SignalAve_PC)×100

MET D1228N = target: T2, MET D1228N (Homo sapiens, UniProt P08581, D1228N); test: Kinase inhibition experiment (HTRF KinEASE-TK kit), mutant MET D1228N
T2 construct: purchased Signalchem M52-12IG
Experimental: as §1, §2, §3, §4, §5, §6, §7, §8, §9, §10

MET F1200I = target: T3, MET F1200I (Homo sapiens, UniProt P08581, F1200I); test: Kinase inhibition experiment (HTRF KinEASE-TK kit), mutant MET F1200I
T3 construct: purchased Signalchem M52-12GG/Y767-2
Experimental: as §1, §2, §3, §4, §5, §6, §7, §8, §9, §10

T1 sequence (P08581 25-1390): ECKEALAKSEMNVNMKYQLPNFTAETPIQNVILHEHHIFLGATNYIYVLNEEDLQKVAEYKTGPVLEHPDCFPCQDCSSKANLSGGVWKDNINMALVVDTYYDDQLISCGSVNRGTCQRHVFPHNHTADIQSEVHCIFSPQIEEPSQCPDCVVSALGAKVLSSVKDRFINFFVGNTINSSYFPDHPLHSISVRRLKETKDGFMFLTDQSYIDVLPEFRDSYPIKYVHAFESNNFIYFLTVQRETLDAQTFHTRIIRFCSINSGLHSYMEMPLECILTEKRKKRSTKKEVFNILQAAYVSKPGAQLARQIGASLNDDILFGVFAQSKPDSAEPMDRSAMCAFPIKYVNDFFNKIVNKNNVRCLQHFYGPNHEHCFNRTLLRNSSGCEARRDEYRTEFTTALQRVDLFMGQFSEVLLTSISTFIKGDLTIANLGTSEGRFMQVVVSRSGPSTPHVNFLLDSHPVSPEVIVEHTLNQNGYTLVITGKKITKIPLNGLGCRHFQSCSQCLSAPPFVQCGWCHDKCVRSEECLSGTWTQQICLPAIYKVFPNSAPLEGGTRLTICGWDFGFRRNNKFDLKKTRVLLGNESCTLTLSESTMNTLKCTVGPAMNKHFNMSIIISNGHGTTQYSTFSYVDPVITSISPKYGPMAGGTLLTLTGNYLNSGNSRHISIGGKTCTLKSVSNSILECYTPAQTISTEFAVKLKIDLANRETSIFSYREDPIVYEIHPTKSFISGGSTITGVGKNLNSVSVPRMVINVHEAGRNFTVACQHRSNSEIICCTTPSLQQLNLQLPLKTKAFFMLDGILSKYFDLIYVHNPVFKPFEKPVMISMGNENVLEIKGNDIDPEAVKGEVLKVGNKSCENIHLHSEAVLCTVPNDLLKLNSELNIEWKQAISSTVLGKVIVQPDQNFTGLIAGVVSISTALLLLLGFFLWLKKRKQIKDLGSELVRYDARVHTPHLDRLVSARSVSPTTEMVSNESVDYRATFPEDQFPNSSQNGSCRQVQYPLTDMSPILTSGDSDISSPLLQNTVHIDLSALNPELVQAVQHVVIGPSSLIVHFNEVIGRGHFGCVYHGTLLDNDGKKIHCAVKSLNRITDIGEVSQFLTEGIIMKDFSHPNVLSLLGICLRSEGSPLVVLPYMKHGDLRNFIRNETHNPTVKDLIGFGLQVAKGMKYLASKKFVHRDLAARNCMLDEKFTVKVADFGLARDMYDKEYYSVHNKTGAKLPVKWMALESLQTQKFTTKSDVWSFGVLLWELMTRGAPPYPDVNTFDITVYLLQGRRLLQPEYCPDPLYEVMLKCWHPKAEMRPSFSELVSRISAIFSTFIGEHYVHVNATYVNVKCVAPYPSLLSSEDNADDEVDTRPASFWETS
T3 sequence (P08581 25-1390 F1200I): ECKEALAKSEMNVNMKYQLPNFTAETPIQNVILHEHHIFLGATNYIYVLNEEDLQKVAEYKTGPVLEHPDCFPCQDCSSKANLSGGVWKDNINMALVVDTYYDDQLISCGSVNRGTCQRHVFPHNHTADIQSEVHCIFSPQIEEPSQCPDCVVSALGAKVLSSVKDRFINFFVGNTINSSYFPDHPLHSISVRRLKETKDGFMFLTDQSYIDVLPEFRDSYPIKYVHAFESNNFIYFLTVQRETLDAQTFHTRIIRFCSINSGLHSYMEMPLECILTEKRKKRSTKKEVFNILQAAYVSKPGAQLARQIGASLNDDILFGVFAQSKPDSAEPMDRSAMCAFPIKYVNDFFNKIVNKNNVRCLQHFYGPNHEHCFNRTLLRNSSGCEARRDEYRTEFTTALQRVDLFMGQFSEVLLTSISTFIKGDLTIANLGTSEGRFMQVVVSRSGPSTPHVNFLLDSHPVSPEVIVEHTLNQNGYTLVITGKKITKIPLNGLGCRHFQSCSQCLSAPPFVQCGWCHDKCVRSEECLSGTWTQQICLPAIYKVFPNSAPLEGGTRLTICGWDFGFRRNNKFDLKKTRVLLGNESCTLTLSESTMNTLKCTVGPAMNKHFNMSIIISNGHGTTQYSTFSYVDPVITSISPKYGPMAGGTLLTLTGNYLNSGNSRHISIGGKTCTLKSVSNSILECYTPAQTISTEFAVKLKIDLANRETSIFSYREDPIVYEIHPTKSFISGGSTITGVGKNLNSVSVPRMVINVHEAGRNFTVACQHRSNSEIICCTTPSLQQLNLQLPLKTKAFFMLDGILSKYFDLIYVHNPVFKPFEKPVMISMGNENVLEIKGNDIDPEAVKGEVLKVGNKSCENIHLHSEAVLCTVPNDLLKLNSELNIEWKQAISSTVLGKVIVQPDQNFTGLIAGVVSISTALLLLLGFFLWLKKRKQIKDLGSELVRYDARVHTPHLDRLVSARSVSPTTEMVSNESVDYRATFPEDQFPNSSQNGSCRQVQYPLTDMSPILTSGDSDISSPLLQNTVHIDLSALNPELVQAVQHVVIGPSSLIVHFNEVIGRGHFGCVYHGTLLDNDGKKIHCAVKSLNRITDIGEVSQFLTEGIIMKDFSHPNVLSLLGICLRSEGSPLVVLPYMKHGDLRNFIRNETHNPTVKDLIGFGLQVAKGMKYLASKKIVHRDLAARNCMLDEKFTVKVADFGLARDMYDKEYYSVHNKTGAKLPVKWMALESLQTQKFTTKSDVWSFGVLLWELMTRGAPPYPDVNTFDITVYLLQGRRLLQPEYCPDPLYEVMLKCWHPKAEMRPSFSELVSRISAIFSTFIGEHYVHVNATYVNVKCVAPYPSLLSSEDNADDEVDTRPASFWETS
T2 sequence (P08581 25-1390 D1228N): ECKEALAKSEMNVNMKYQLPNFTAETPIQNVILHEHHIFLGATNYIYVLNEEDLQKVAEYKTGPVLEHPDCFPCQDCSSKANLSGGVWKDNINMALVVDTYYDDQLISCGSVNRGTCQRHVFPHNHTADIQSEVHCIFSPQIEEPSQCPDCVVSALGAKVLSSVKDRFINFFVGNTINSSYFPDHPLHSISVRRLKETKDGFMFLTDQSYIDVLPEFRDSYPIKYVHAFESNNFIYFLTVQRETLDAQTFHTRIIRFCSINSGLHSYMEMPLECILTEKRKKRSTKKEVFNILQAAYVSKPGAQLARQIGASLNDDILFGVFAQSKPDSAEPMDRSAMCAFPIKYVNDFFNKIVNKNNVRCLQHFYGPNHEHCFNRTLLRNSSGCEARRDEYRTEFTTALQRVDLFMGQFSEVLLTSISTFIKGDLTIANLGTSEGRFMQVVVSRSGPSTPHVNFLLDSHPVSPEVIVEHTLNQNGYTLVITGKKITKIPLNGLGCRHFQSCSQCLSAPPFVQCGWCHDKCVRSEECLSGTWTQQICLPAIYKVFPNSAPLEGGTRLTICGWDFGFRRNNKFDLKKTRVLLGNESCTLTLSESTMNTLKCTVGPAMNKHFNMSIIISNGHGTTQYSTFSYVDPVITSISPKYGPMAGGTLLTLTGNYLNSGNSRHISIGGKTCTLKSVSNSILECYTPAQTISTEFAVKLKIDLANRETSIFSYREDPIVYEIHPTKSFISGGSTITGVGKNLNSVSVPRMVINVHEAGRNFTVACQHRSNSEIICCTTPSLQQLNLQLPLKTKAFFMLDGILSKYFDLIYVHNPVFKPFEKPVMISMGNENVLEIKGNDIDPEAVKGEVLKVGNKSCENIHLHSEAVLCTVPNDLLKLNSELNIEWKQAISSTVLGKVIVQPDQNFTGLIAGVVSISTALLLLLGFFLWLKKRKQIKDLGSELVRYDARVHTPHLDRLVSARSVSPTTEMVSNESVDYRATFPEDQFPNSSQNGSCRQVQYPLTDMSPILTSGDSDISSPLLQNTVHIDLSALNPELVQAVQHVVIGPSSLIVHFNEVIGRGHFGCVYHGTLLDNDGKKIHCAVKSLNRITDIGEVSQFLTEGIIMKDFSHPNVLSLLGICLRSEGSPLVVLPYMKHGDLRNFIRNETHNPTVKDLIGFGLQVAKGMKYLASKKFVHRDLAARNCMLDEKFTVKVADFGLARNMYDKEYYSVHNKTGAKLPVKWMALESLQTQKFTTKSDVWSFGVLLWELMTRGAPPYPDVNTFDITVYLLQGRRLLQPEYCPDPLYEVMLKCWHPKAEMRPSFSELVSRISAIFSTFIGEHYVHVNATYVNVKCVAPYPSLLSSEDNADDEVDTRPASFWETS

SMILES | IC50 [1] [nM] | IC50 (MET D1228N) [nM] | IC50 (MET F1200I) [nM]
O=C(Nc1ccc(Oc2ccnc3[nH]nc(NCC(O)C(F)(F)F)c23)c(F)c1)c1cccc(-c2ccc(F)cc2)[n+]1[O-] (stereo not drawn) [Final product 11] | 6.3 | 35.7 | 16.8
O=C(Nc1ccc(Oc2ccnc3[nH]nc(NCC4(CO)CC(O)C4)c23)c(F)c1)c1cccc(-c2ccc(F)cc2)[n+]1[O-] (stereo not drawn) [Final product 20] | 6.9 | 29.9 | 20.1
O=C(Nc1ccc(Oc2ccnc3[nH]nc(N[C@H]4C[C@H](O)C4)c23)c(F)c1)c1cccc(-c2ccc(F)cc2)[n+]1[O-] [Final product 23] | 3.3 | 21 | 12.5
O=C(Nc1ccc(Oc2ccnc3[nH]nc(N4CCC(O)CC4)c23)c(F)c1)c1cccc(-c2ccc(F)cc2)[n+]1[O-] [Final product 26, 2-((3-fluoro-4-((3-(4-hydroxypiperidin-1-yl)-1H-pyrazolo[3,4-b]pyridin-4-yl)oxy)phenyl)carbamoyl)-6-(4-fluorophenyl)pyridine 1-oxide] | 3.8 | 18.1 | 9.5
CC1(O)CCN(c2n[nH]c3nccc(Oc4ccc(NC(=O)c5cccc(-c6ccc(F)cc6)[n+]5[O-])cc4F)c23)CC1 [Final product 27] | 4.5 | 13.4 | 8.6
CC1(CO)CCN(c2n[nH]c3nccc(Oc4ccc(NC(=O)c5cccc(-c6ccc(F)cc6)[n+]5[O-])cc4F)c23)CC1 [Final product 29] | 5.2 | 15.8 | 20.4
O=C(Nc1ccc(Oc2ccnc3[nH]nc(N4CCC[C@H](CO)C4)c23)c(F)c1)c1cccc(-c2ccc(F)cc2)[n+]1[O-] [Final product 33] | 9.7 | 30.5 | 21.1
O=C(Nc1ccc(Oc2ccnc3[nH]nc(N4CCO[C@@H](CO)C4)c23)c(F)c1)c1cccc(-c2ccc(F)cc2)[n+]1[O-] [Final product 34] | 2.7 | 18.8 | 12.3
O=C(Nc1ccc(Oc2ccnc3[nH]nc(N4CCO[C@H](CO)C4)c23)c(F)c1)c1cccc(-c2ccc(F)cc2)[n+]1[O-] [Final product 35] | 2 | 14.7 | 17.9
C[C@H](CO)Nc1n[nH]c2nccc(Oc3ccc(NC(=O)c4ccc(F)c(-c5ccc(Cl)cc5)[n+]4[O-])cc3F)c12 [Final product 56] | 5 | 17.7 | 14.4
CC[C@@H](CO)Nc1n[nH]c2nccc(Oc3ccc(NC(=O)c4ccc(Cl)c(-c5ccc(F)cc5)[n+]4[O-])cc3F)c12 [Final product 59] | 12.7 | 20.3 | 7.9
O=C(Nc1ccc(Oc2ccnc3[nH]nc(N[C@H]4CC[C@H](O)CC4)c23)c(F)c1)c1ccc(Cl)c(-c2ccc(F)cc2)[n+]1[O-] [Final product 64] | – | 45.6 | 22.5
C[C@H](CO)Nc1n[nH]c2nccc(Oc3ccc(NC(=O)c4ccc(Cl)c(-c5ccc(Cl)cc5)[n+]4[O-])cc3F)c12 [Final product 65] | 10.8 | 37.4 | 42.4
C[C@H](CO)Nc1n[nH]c2nccc(Oc3ccc(NC(=O)c4ccc(Cl)c(-c5ccc(F)cc5Cl)[n+]4[O-])cc3F)c12 [Final product 66] | 2.7 | 11 | 35.5
CC(O)C(CO)CNc1n[nH]c2nccc(Oc3ccc(NC(=O)c4cccc(-c5ccc(F)cc5)[n+]4[O-])cc3Cl)c12 (stereo not drawn) [Final product 102] | 1 | 6.3 | 2.1
O=C(Nc1ccc(Oc2ccnc3[nH]nc(NC4CC(CO)C4)c23)c(Cl)c1)c1cccc(-c2ccc(F)cc2)[n+]1[O-] (stereo not drawn) [Final product 113] | 3.3 | 22.5 | 9.2
O=C(Nc1ccc(Oc2ccnc3[nH]nc(N[C@H]4CC[C@@H](O)C4)c23)c(Cl)c1)c1cccc(-c2ccc(F)cc2)[n+]1[O-] [Final product 114] | 5.1 | 18.7 | 10.7
O=C(Nc1ccc(Oc2ccnc3[nH]nc(N[C@H]4COC[C@@H]4O)c23)c(Cl)c1)c1cccc(-c2ccc(F)cc2)[n+]1[O-] [Final product 115] | 0.8 | 10.9 | 6
COc1ccc2ncnc(Nc3ccc(NC(=O)c4cccc(-c5ccc(F)cc5)[n+]4[O-])cc3F)c2c1O[C@H](C)CO [Final product 181, (R)-2-((3-fluoro-4-((5-((1-hydroxypropan-2-yl)oxy)-6-methoxyquinazolin-4-yl)amino)phenyl)carbamoyl)-6-(4-fluorophenyl)pyridine 1-oxide] | 11.7 | 29.2 | –

The next lines start with the values.

IC50 [1] [nM] | IC50 (MET D1228N) [nM] | IC50 (MET F1200I) [nM] | SMILES
2.3 | 35.4 | 5.8 | O=C(Nc1ccc(Oc2ccnc3[nH]nc(NCCO)c23)c(F)c1)c1cccc(-c2ccc(F)cc2)[n+]1[O-] [Final product 1]
4.3 | 13.1 | 18.3 | C[C@@H](CO)Nc1n[nH]c2nccc(Oc3ccc(NC(=O)c4cccc(-c5ccc(F)cc5)[n+]4[O-])cc3F)c12 [Final product 3]
8.5 | 30 | 21.4 | CC[C@@H](CO)Nc1n[nH]c2nccc(Oc3ccc(NC(=O)c4cccc(-c5ccc(F)cc5)[n+]4[O-])cc3F)c12 [Final product 6]
4.6 | 28.4 | 2.3 | CC(O)CNc1n[nH]c2nccc(Oc3ccc(NC(=O)c4cccc(-c5ccc(F)cc5)[n+]4[O-])cc3F)c12 (stereo not drawn) [Final product 8]
3.8 | 25.6 | 20.8 | CCC(O)CNc1n[nH]c2nccc(Oc3ccc(NC(=O)c4cccc(-c5ccc(F)cc5)[n+]4[O-])cc3F)c12 (stereo not drawn) [Final product 9]
7.5 | 28.2 | 25.8 | C[C@@H](Nc1n[nH]c2nccc(Oc3ccc(NC(=O)c4cccc(-c5ccc(F)cc5)[n+]4[O-])cc3F)c12)C(C)(C)O [Final product 16]
5.9 | 25.5 | 15.5 | O=C(Nc1ccc(Oc2ccnc3[nH]nc(NC4(CO)CC4)c23)c(F)c1)c1cccc(-c2ccc(F)cc2)[n+]1[O-] [Final product 22]
1.4 | 36.2 | 14.2 | C[C@H](CO)Nc1n[nH]c2nccc(Oc3ccc(NC(=O)c4cccc(-c5ccc(Cl)cc5)[n+]4[O-])cc3F)c12 [Final product 42]
10.4 | 32.8 | 26 | C[C@H](CO)Nc1n[nH]c2nccc(Oc3ccc(NC(=O)c4ccc(C5CC5)c(-c5ccc(F)cc5)[n+]4[O-])cc3F)c12 [Final product 81]
17.4 | 48.1 | 29.6 | C[C@H](CO)Nc1n[nH]c2nccc(Oc3ccc(NC(=O)c4ccc(C(F)(F)F)c(-c5ccc(F)cc5)[n+]4[O-])cc3F)c12 [Final product 82]
3.2 | 30.4 | 6.2 | C[C@H](CO)Nc1n[nH]c2nccc(Oc3ccc(NC(=O)c4ccc(C#N)c(-c5ccc(F)cc5)[n+]4[O-])cc3F)c12 [Final product 83]
6.4 | 10.2 | 29.7 | CSc1ccc(C(=O)Nc2ccc(Oc3ccnc4[nH]nc(N[C@H](C)CO)c34)c(F)c2)[n+]([O-])c1-c1ccc(F)cc1 [Final product 86]
5.3 | 20.6 | 23 | C[C@H](CO)Nc1n[nH]c2nccc(Oc3ccc(NC(=O)c4ccc(S(C)(=O)=O)c(-c5ccc(F)cc5)[n+]4[O-])cc3F)c12 [Final product 87]
5.3 | 16.4 | 17.6 | C[C@H](CO)Nc1n[nH]c2nccc(Oc3ccc(NC(=O)c4ccc(N(C)C)c(-c5ccc(F)cc5)[n+]4[O-])cc3F)c12 [Final product 89]
12.1 | 41.2 | – | C[C@H](CO)Nc1n[nH]c2nccc(Oc3ccc(NC(=O)c4cc(C5CC5)cc(-c5ccc(F)cc5)[n+]4[O-])cc3F)c12 [Final product 91]
2.2 | 14.1 | 4.5 | C[C@H](CO)Nc1n[nH]c2nccc(Oc3ccc(NC(=O)c4ccnc(-c5ccc(F)cc5)[n+]4[O-])cc3F)c12 [Final product 96]
4.6 | 28.7 | 10.7 | C[C@H](CO)Nc1n[nH]c2nccc(Oc3ccc(NC(=O)c4cccc(-c5ccc(Cl)cc5)[n+]4[O-])cc3Cl)c12 [Final product 116]
